Data published in US11596591B2, “Manufacturing method for cosmetic composition of fucoidan and cosmetic composition comprising low molecular weight fucoidan using the same” (priority 2021, dated 2023).

Test system: mushroom tyrosinase
Assay: in-vitro tyrosinase inhibition assay (substrate L-tyrosine)
Format: biochemical
Conditions: 200 μM, positive control
Source text: An in-vitro tyrosinase inhibition assay was used to determine whether the whitening ingredients were directly affecting the regulation of the tyrosinase activity (using tyrosine as a substrate). The ingredients with a whitening effect mainly have a mechanism of action that inhibits some processes in the melanin biosynthetic pathway in vivo, which is the initial process in which tyrosinase is involved in the most important process in the synthetic pathway. Most of the whitening ingredients inhibit the activity of tyrosinase and reduce the production of melanin in the skin, resulting in offering a skin whitening effect. […] (1) Test method: For an in-vitro tyrosinase inhibition test of the test substance, mozuku-derived fucoidan extract, the tyrosinase inhibitory ability was measured using an in-vitro tyrosinase inhibition assay. […] The tyrosinase inhibitory effect of the test substance was evaluated by measuring the absorbance of DOPAchrome produced from the substrate L-tyrosine by the enzymatic reaction of tyrosinase. […] A microplate reader system (SpectraMax® i3x Multi Mode Detection Platform Molecular Devices, USA) was used to measure the absorbance at 475 nm. […] As determined by the Student's t test, P<0.05 was considered statistically significant. The in-vitro tyrosinase inhibition activity against the substrate L-tyrosine was calculated according to the following equation: […] […]

OC[C@H]1O[C@@H](Oc2ccc(O)cc2)[C@H](O)[C@@H](O)[C@@H]1O [arbutin] was tested, and the “tyrosinase inhibition activity against L-tyrosine with respect to the negative control” value was 50.47±0.95%.
